Source: PubChem BioAssay (NCI)
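96-well plates; 48 h exposure; 5 concentrations. Endpoints by linear interpolation between flanking doses. Not reached: highest tested concentration assigned. GI50 marks 50% less growth. TGI: concentration producing complete growth inhibition.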

What was measured:
Assay in all cases: growth of human tumour cells (NCI), 48 h
HCT-15 colon = test system: HCT-15 colon
LOX IMVI melanoma = test system: LOX IMVI melanoma
IGROV1 ovarian = test system: IGROV1 ovarian
T-47D breast = test system: T-47D breast
UO-31 renal = test system: UO-31 renal
PC-3 prostate = test system: PC-3 prostate
KM12 colon = test system: KM12 colon
OVCAR-8 ovarian = test system: OVCAR-8 ovarian

Compound	GI50 (HCT-15 colon)	TGI (HCT-15 colon)	GI50 (LOX IMVI melanoma)	TGI (LOX IMVI melanoma)	GI50 (IGROV1 ovarian)	TGI (IGROV1 ovarian)	GI50 (T-47D breast)	TGI (T-47D breast)	GI50 (UO-31 renal)	TGI (UO-31 renal)	GI50 (PC-3 prostate)	TGI (PC-3 prostate)	GI50 (KM12 colon)	TGI (KM12 colon)	GI50 (OVCAR-8 ovarian)	TGI (OVCAR-8 ovarian)
COc1ccccc1N(C(C)=O)C1=C(Cl)C(=O)c2ccccc2C1=O	1.04 µM	2.61 µM	2.29 µM	8.08 µM	2.82 µM	10.3 µM	0.382 µM	2.95 µM	1.03 µM	2.56 µM	1.17 µM	10.8 µM	1.06 µM	5.48 µM	2.72 µM	> 32.2 µM
CCOC(=O)c1c(C(F)(F)F)n([O-])c2ccc(Cl)cc2[n+]1=O	1.52 µM	3.16 µM	1.57 µM	3.08 µM	1.85 µM	3.77 µM	2.03 µM	4.38 µM	1.48 µM	2.93 µM	1.45 µM	3.02 µM	2.07 µM	3.8 µM	2.06 µM	3.9 µM
Oc1[nH]c2ccc(Cl)cc2c1/C=c1/ccc2c(c1)N=C(c1ccc(C(F)(F)F)cc1)N=2	2.64 µM	8.91 µM	1.77 µM	3.42 µM	3.35 µM	14.2 µM	2.86 µM	9.23 µM	2.56 µM	9.81 µM	2.29 µM	7.58 µM	2.08 µM	7.63 µM	3.17 µM	11.4 µM
Nc1ncnc2c1nc(N)n2C1OC(CO)C(O)C1O (configuration not stated)	0.433 µM	10.7 µM	0.212 µM	1.17 µM	0.238 µM	0.863 µM	0.449 µM	2.68 µM	0.295 µM	2.82 µM	1.07 µM	8.21 µM	0.266 µM	0.867 µM	0.63 µM	2.98 µM
Cc1cc(NS(=O)(=O)c2ccc(NC(=O)COc3ccc(-c4cc5ccccc5[nH]4)cc3)cc2)no1	2.32 µM	7.35 µM	1.86 µM	5.18 µM	2.02 µM	4.41 µM	2.75 µM	8.56 µM	1.41 µM	3.76 µM	1.94 µM	6.91 µM	1.51 µM	3.24 µM	2.01 µM	4.77 µM
Cc1ccc2nc3sc(=O)sc3nc2c1		31.3 µM		28.2 µM		31.7 µM		> 100 µM		28.9 µM		27.3 µM		28.9 µM		28.6 µM
CC(=O)Nc1cc(C(c2ccccc2)c2ccccc2)cc(C(c2ccccc2)c2ccccc2)c1C	7.12 µM	> 100 µM	7.98 µM	> 100 µM	32.5 µM	> 100 µM	3.18 µM	> 100 µM	3.54 µM	> 100 µM	4.13 µM	> 100 µM	6.19 µM	> 100 µM	> 100 µM	> 100 µM
CCN1CCN(CC(=O)Nc2nc3ccc(NCc4ccc(C)cc4)cc3s2)CC1	1.04 µM	2.47 µM	0.94 µM	1.86 µM	6.14 µM	14.1 µM	1.6 µM	7.29 µM	2.57 µM	10.8 µM			5.67 µM	13.8 µM	6.66 µM	16.5 µM
COC(=O)c1c2c(c(C)[n+]([O-])c1C)C(=O)C=C(NCc1ccc(Br)cc1)C2=O	0.167 µM	1.95 µM	0.07 µM	1.62 µM	0.473 µM	2.14 µM	0.141 µM	2.09 µM	1.08 µM	2.44 µM	0.428 µM	3.37 µM	0.171 µM	1.81 µM		
O=S(=O)(CC(O)C(Cl)(Cl)Cl)NNc1ccccc1 (configuration not stated)		> 100 µM		> 100 µM		> 100 µM		> 100 µM				> 100 µM		> 100 µM		> 100 µM
c1cc2ccc3cc2cc1CNCCOCCNCc1ccc2ccc(cc2c1)CNCCOCCNC3	> 100 µM	> 100 µM	> 100 µM	> 100 µM	> 100 µM	> 100 µM	> 100 µM	> 100 µM	> 100 µM	> 100 µM			> 100 µM	> 100 µM	> 100 µM	> 100 µM
COc1cc2c(cc1OCc1ccccc1)N=C[C@@H]1C[C@@H](F)CN1C2=O	0.282 µM	0.893 µM				0.411 µM	0.577 µM	18.7 µM		0.483 µM		1.02 µM	1.55 µM	4.05 µM	0.565 µM	5.89 µM
Cc1ccn2c(-c3csc(Nc4cccc(O)c4)n3)c(C)nc2c1	0.273 µM	24 µM			4.43 µM	29.1 µM	0.878 µM	10.8 µM	0.977 µM	16.6 µM	0.609 µM	29.6 µM	0.273 µM	16.4 µM	0.611 µM	44.9 µM
Cc1ccc2c(n1)C(=O)C(Cl)=C(Nc1ccc(N3CCN(C)CC3)cc1)C2=O	1.84 µM	3.93 µM	1.78 µM	3.22 µM	1.87 µM	3.6 µM			1.63 µM	2.98 µM	1.57 µM	3.16 µM	10.2 µM	23.5 µM	1.85 µM	3.4 µM
COc1cc(C2CC(=O)c3c(C)nn(-c4nc5ccccc5[nH]4)c3C2)cc(OC)c1OC (configuration not stated)	> 100 µM	> 100 µM									> 100 µM	> 100 µM	> 100 µM	> 100 µM		
Cc1cc(C(=O)N2CCN(C)CC2)c2c(=O)n(-c3ccccc3)c(=O)n(CC(O)CN3CCN(c4ncccn4)CC3)c2n1 (configuration not stated)	> 100 µM	> 100 µM	> 100 µM	> 100 µM	> 100 µM	> 100 µM	> 100 µM	> 100 µM	> 100 µM	> 100 µM			> 100 µM	> 100 µM		
CCOP(=O)(CCN1CCN(CCCCCOc2cc3c(cc2OC)C(=O)N2CCC[C@H]2C=N3)CC1)OCC	80 µM	> 100 µM			2.74 µM	18.7 µM	2.44 µM	9.38 µM	17.7 µM	44.8 µM			12.1 µM	36.3 µM	31.2 µM	> 100 µM
